Results from patent publication US9265816B2, “Immunogenic WT-1 peptides and methods of use thereof” (priority 2006, dated 2016).
One block for each compound: values may come before it. Residues, ends and D or L forms follow the SMILES beside them.

Key:
CD3+ T cells [1] = assay: Cross-priming: T cells stimulated with DCs incubated with tumor lysates, IFN-gamma ELISPOT against peptide-pulsed DCs; type: cell-based, human; conditions: for experiments in which lysate-stimulated T cells recognized the peptide: WT1 positive tumor lysates, 5 separate donors
Experimental: A CD3^+ in vitro stimulation was performed as described above. 2×10^6 immature DCs were incubated with total cellular lysate from 2×10^6 tumor cells that was previously prepared by 3 freeze/thaw cycles. Following an 18 hour incubation, maturation cytokines were added to the DCs as described above. […] These DCs were exposed to peptide again during the ELISPOT assay as described above.
Total tumor lysates were prepared from 3 different cell lines: 697 (WT1^+, HLA A0201^+), an e1a2 leukemia cell line; JMN (WT1^+, HLA A0201^+) a biphasic mesothelioma cell line, and as a control, MeWo (WT1^−, HLA A0201^+), a malignant melanoma cell line. DCs from healthy A0201^+ donors were incubated for 18 hours with the tumor lysates and used to stimulate autologous CD3^+ T cells. Following 3 stimulations, the T cells were tested for their reactivity to autologous DCs pulsed with the WT1 peptides. […] These experiments were repeated in 5 separate donors.

[2] = test system: MeWo (WT1- melanoma cell line); assay: Chromium 51 cytotoxicity assay; type: cell-based, human
Experimental: (§1) FIG. 9, left panel. […] The presence of specific CTL was measured in a standard 4 h-chromium release assay. Target cells were pulsed with 10 microgram (mcg)/ml of synthetic peptides overnight at 37° C. and labeled with 300 μCi of Na2^51CrO4 (NEN Life Science Products, Inc., Boston, Mass.). After extensive washing, target cells were incubated with T cells at an E:T ratio ranging from 100:1 to 10:1. All conditions were performed in triplicate. Plates were incubated for 4 hours at 37° C. in 5% CO2. Supernatant fluids were harvested and radioactivity was measured in a gamma counter. Percent specific lysis was determined from the following formula: 100×[(experimental release minus spontaneous release)/(maximum release minus spontaneous release)]. Maximum release was determined by lysis of radiolabeled targets in 2.5% Triton X-100.

[3] = test system: JMN (WT1+ mesothelioma cell line); type: cell-based, human
Experimental: as §1

HLA-A0201 = HLA-A0201 (Homo sapiens, UniProt P04439, D140Y/D185E/D98H/E176V/E277Q/G131W/G231S/I119V/I121R/I166T/I218V/L300P/L318F/N151K/N90K/P208A/P217A/Q86G/Q94H/R138H/R169H/T345S); assay: T2 assay for peptide binding and stabilization of HLA A0201 molecules; type: cell-based; conditions: Example 1
Experimental: T2 cells (TAP^−, HLA-A0201^+) were incubated overnight at 27° C. at a concentration of 1×10^6 cells/ml in FCS-free RPMI medium supplemented with 5 μg/ml human β2m (Sigma, St Louis, Mo.) in the absence (negative control) or presence of either a positive reference tyrosinase peptide or test peptides at various final concentrations (50, 10, 1, and 0.1 micrograms (μg)/ml). Following a 4-hour incubation with 5 μg/ml brefeldin A (Sigma), T2 cells were labeled for 30 minutes at 4° C. with a saturating concentration of anti-HLA-A2.1 (BB7.2) mAb, then washed twice. Cells were then incubated for 30 minutes, 4° C. with a saturating concentration of FITC-conjugated goat IgG F(ab′)2 anti-mouse Ig (Caltag, San Francisco, Calif.), washed twice, fixed in PBS/1% paraformaldehyde and analyzed using a FACS Calibur® cytofluorometer (Becton Dickinson, Immunocytometry Systems, San Jose, Calif.).
The mean intensity of fluorescence (MIF) observed for each peptide concentration (after dividing by the MIF in the absence of peptide) was used as an indication of peptide binding and expressed as a “fluorescence index.” Stabilization assays were performed similarly. Following initial evaluation of peptide binding at time 0, cells were washed in RPMI complete medium to remove free peptides and incubated in the continuous presence of 0.5 μg/ml brefeldin-A for 2, 4, 6 or 8 hours.
The number of stable peptide-HLA-A2.1 complexes was estimated as described above by immunofluorescence. The half time of complexes is an estimate of the time required for a 50% reduction of the MIF value at time=0.

CD3+ T cells [4] = assay: IFN-gamma ELISPOT of peptide-stimulated T cells from healthy donors with different HLA-DRB1 types; type: cell-based, human; conditions: for experiments with peptide specific T cell responses: 7 healthy donors, each a different HLA-DRB1 type, positive/total experiments; for peptide specific CD4 response, IFN-γ ELISPOT: donors with different HLA-DRB1 types, FIG. 5
Experimental: PBMC were Ficoll-purified from blood and resuspended at 5×10^6/ml in Ex-Vivo-150® medium (BioWhittaker, Walkersville, Md.) containing 1% autologous plasma. After a 2-hour incubation at 37° C., the non-adherent fraction was harvested and washed repeatedly with PBS, then resuspended in media containing 1×10^3 IU/ml GM-CSF and 0.0032 IU/ml IL-4. On day 2 and 4, the same media was added as re-feed (i.e., ½ the volume of media, containing enough cytokines for the entire dish, was added). On day 5, 10 μg/ml of peptide was added.
On day 6, a maturation cocktail of cytokines was added, and cells were cultured for another 48 hours. The maturation cocktail consisted of: 4×10^2 IU/ml IL-1-beta, 0.0032 IU/ml IL-4, 1×10^3 IU/ml IL-6, 1×10^3 IU/ml GMCSF, […], and 1 μg/ml PGE2.
On day 7, DC were harvested and washed twice with RPMI, counted, aliquoted and resuspended at 1×10^6/ml in X-vivo 15® media (without serum). Peptides were added to a final concentration of 10 μg/ml, and incubated for 2 h, 37° C. and 5% CO2, gently re-suspending every 15 minutes, then washed twice in HBSS and re-suspended in RPMI+5% autologous plasma at an appropriate concentration depending on the number of effectors isolated in the next step.
In addition, on day 7, additional PBMC were used to generate additional DC and CD3^+ cells. DC were isolated from the adherent fraction and prepared as described above for the second stimulation of the effector cells on day 14. CD3^+ cells were isolated from the non-adherent fraction by negative selection and stimulated with the previously prepared DC by re-suspending the CD3^+ cells at a concentration of 2×10^6 cells/ml in RPMI+5% autologous plasma, and adding DC at an effector:DC ratio of 20:1 and 10 ng/ml IL-15. Cells were then plated in 2 ml and co-incubated at 37° C. and 5% CO2 for 1 week.
On day 14, the CD3^+ cells were stimulated a second time with the second batch of DC in the same manner, except that 1×10^6 cells/ml were mixed with DC at an effector:DC ratio of 50:1. On day 18, the same media was added as re-feed. On day 20, the DC from the previous generation were defrosted and incubated in maturation cytokines in X-vivo 15® media. On day 21, the ELISPOT assay was conducted.
Plates were pre-wet with 30 μl/well 70% alcohol, shaking the plates to ensure coverage of the entire surface area, washed 3 times with 150 μl/well sterile PBS, then incubated overnight at 4° C. with 10 μg/ml coating antibody (anti-INF clone) in PBS, 100 μl/well, wrapped in aluminum foil. Plates were then washed 2 times with 150 μl/well PBS and 1 time with RPMI/10% autologous plasma (AP), then blocked with 150 μl/well RPMI/5% AP for 2 hours at 37° C. PBMC were suspended in RPMI/5% AP at 1×10^6/ml. […]

[5] = test system: 697 (WT1+ leukemia cell line); type: cell-based, human
Experimental: FIG. 9, left panel. […] CD8^+ T cells were incubated with radiolabeled target cells (pulsed or unpulsed 697 (A0201^+, WT1^+) or SKLY16 (A0201+, WT1-) at 3 different E:T ratios: Grey bars 100:1; Black bars 30:1; White bars 10:1. Y axis: percentage of cytotoxicity. X axis: target cell conditions. *-p<0.05 compared to SKLY16 controls at the same E:T ratio. Right panel: CD8+ T cells isolated as described for the left panel were incubated with radiolabeled JMN (solid line A0201+ WT1+) or MeWo (dashed line A0201+, WT1-) target cells at 4 different E:T ratios: Y axis: percentage of cytotoxicity. X axis: E:T ratios. P was <0.001 compared to MeWo controls. The presence of specific CTL was measured in a standard 4 h-chromium release assay. Target cells were pulsed with 10 microgram (mcg)/ml of synthetic peptides overnight at 37° C. and labeled with 300 μCi of Na2^51CrO4 (NEN Life Science Products, Inc., Boston, Mass.). After extensive washing, target cells were incubated with T cells at an E:T ratio ranging from 100:1 to 10:1. […] Supernatant fluids were harvested and radioactivity was measured in a gamma counter. Percent specific lysis was determined from the following formula: 100×[(experimental release minus spontaneous release)/(maximum release minus spontaneous release)]. Maximum release was determined by lysis of radiolabeled targets in 2.5% Triton X-100.

[6] = human T cells stimulated 2 times with the peptide

stability of binding to HLA-A0201 (HLA-A0201): stable binding
Compound: YMFPNAPYL (One or more amino acids changed compared to native peptide sequence) [WT1 A1 (analogue)]
recognition by T cells stimulated with DCs pulsed with 697 tumor lysate (CD3+ T cells [1]; 697 tumor lysate): recognized | recognition of MeWo cells by stimulated CD3+ T cells ([2]; MeWo alone or pulsed with WT1 122A1 peptide): not negative control MeWo cells | lysis of MeWo [2, 6]: 22.2% | recognition of JMN cells by stimulated CD3+ T cells ([3]; FIG. 9 right panel): recognized JMN cells | lysis of JMN [3, 6]: 44.8%

Compound: PGCNKRYFKLSHLQMHSRKHTG (listed as Homo sapiens) [Peptide 328]
experiments with peptide specific T cell responses (CD3+ T cells [4]): 11/15 | peptide specific CD4 response, IFN-γ ELISPOT (CD3+ T cells [4]): stimulated a significant peptide specific CD4 response | experiments in which lysate-stimulated T cells recognized the peptide (CD3+ T cells [1]): ⅗

stability of binding to HLA-A0201 (HLA-A0201): stable binding
Compound: YLGEQQYSV (One or more amino acids changed compared to native peptide sequence) [WT1 B (analogue)]

Compound: LVRHHNMHQRNMTKL (listed as Homo sapiens) [Peptide 427]
experiments in which lysate-stimulated T cells recognized the peptide (CD3+ T cells [1]): all experiments

Compound: CSCC[C@H](NC(=O)[C@H](Cc1ccc(O)cc1)NC(=O)[C@H](C)NC(=O)[C@H](CCC(N)=O)NC(=O)CNC(=O)[C@@H](N)CO)C(=O)N[C@@H](Cc1ccccc1)C(=O)N1CCC[C@H]1C(=O)N[C@@H](CC(N)=O)C(=O)N[C@@H](C)C(=O)N1CCC[C@H]1C(=O)N[C@@H](Cc1ccc(O)cc1)C(=O)N[C@@H](CC(C)C)C(=O)N1CCC[C@H]1C(=O)N[C@@H](CO)C(=O)N[C@@H](CS)C(=O)N[C@@H](CC(C)C)C(=O)N[C@@H](CCC(=O)O)C(=O)N[C@@H](CO)C(=O)O [Peptide 122A1] (H-SGQAYMFPNAPYLPSCLES-OH)
A0201+ donors with similar cytotoxicity results [5]: ¾ | cytotoxicity of stimulated CD8+ cells to 697 [5]: stimulated a sufficient number of CD8^+ cells to be cytotoxic to 697 | cytotoxicity of stimulated CD4+ cells [3]: no cytotoxicity

stability of binding to HLA-A0201 (HLA-A0201): stable binding
Compound: YLLPAVPSL (One or more amino acids changed compared to native peptide sequence) [WT1 C1 (analogue)]

Compound: RSDELVRHHNMHQRNMTKL (listed as Homo sapiens) [Peptide 423]
experiments with peptide specific T cell responses (CD3+ T cells [4]): 3/14

Compound: TEYKLVVVGAPGVGKSALTIQ (listed as Homo sapiens) [RAS, reference compound]
peptide specific CD4 response, IFN-γ ELISPOT (CD3+ T cells [4]): did not produce IFN-γ over background levels
